Test results from the supplement of paper PMC11451515.

Experiments:
Conditions in all cases: 48 h
[1] = tested on: NOMO1; test: cell viability relative to DMSO control; higher = less cytotoxic
Summary of the method: (§1)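 Three leukemia lines were tested: NOMO1 and SEM at 500 cells/well and P12-Ichikawa at 1000 cells/well. Each was adapted for at least four passages in each medium and seeded in 5 μl in 1536-well plates, and library compounds in DMSO were pin-dosed from 47 μM to 0.79 nM in 11 threefold steps. After 48 h at 37°C, CellTiter-Glo One luminescence was read. Viability is a percentage relative to DMSO wells on each plate, with cell-free wells as background.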

[2] = tested on: P12-Ichikawa; test: as above
Summary of the method: as §1

[3] = tested on: SEM cells; test: as above
Summary of the method: as §1

[4] = tested on: NOMO1; test: AUC of viability dose-response curve (% viability x log10 dose units); higher = less sensitive
Summary of the method: (§2)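 Library compounds in DMSO were applied for 48 h at 37°C at 11 threefold doses (47 μM to 0.79 nM) to medium-adapted leukemia cells in 1536-well plates holding 500 or 1000 cells/well. Luminescence from CellTiter-Glo One was normalised plate by plate against DMSO and cell-free wells. Area under the curve came from trapezoidal integration of a log-logistic fit, after scaling curves that rose above full viability and discarding those that failed quality control. The fit had four parameters and used log10 doses.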

[5] = tested on: P12-Ichikawa; test: as above
Summary of the method: as §2

[6] = tested on: SEM cells; test: as above
Summary of the method: as §2

CC(C)NCC(O)COc1ccc(CCOCC2CC2)cc1 (stereo not drawn)
cell viability [%]
Conditions	[1]	[2]	[3]
HPLM + 10% dialyzed FBS, 0.000781 µM	–	121	94.9
HPLM + 10% dialyzed FBS, 0.00234 µM	–	118	94.5
HPLM + 10% dialyzed FBS, 0.00702 µM	–	113	101
HPLM + 10% dialyzed FBS, 0.0211 µM	–	117	107
HPLM + 10% dialyzed FBS, 0.0632 µM	–	113	106
HPLM + 10% dialyzed FBS, 0.19 µM	–	126	116
HPLM + 10% dialyzed FBS, 0.569 µM	–	115	99.1
HPLM + 10% dialyzed FBS, 1.71 µM	–	113	90.4
HPLM + 10% dialyzed FBS, 5.12 µM	–	111	107
HPLM + 10% dialyzed FBS, 15.4 µM	–	118	91.4
HPLM + 10% dialyzed FBS, 46.1 µM	–	120	95.1
RPMI 5 mM glucose + 10% FBS, 0.000781 µM	118	120	–
RPMI 5 mM glucose + 10% FBS, 0.00234 µM	128	123	–
RPMI 5 mM glucose + 10% FBS, 0.00702 µM	107	118	–
RPMI 5 mM glucose + 10% FBS, 0.0211 µM	109	121	–
RPMI 5 mM glucose + 10% FBS, 0.0632 µM	105	125	–
RPMI 5 mM glucose + 10% FBS, 0.19 µM	107	121	–
RPMI 5 mM glucose + 10% FBS, 0.569 µM	109	131	–
RPMI 5 mM glucose + 10% FBS, 1.71 µM	110	126	–
RPMI 5 mM glucose + 10% FBS, 5.12 µM	114	118	–
RPMI 5 mM glucose + 10% FBS, 15.4 µM	102	104	–
RPMI 5 mM glucose + 10% FBS, 46.1 µM	19.9	123	–
RPMI 5 mM glucose + 10% dialyzed FBS, 0.000781 µM	121	121	115
RPMI 5 mM glucose + 10% dialyzed FBS, 0.00234 µM	125	121	104
RPMI 5 mM glucose + 10% dialyzed FBS, 0.00702 µM	122	112	110
RPMI 5 mM glucose + 10% dialyzed FBS, 0.0211 µM	117	116	113
RPMI 5 mM glucose + 10% dialyzed FBS, 0.0632 µM	119	122	109
RPMI 5 mM glucose + 10% dialyzed FBS, 0.19 µM	118	116	113
RPMI 5 mM glucose + 10% dialyzed FBS, 0.569 µM	129	110	125
RPMI 5 mM glucose + 10% dialyzed FBS, 1.71 µM	113	119	114
RPMI 5 mM glucose + 10% dialyzed FBS, 5.12 µM	116	113	97.6
RPMI 5 mM glucose + 10% dialyzed FBS, 15.4 µM	99.1	107	105
RPMI 5 mM glucose + 10% dialyzed FBS, 46.1 µM	20.9	115	108

AUC of viability dose-response curve
Conditions	[4]	[5]	[6]
HPLM + 10% dialyzed FBS	427	474	470
RPMI 5 mM glucose + 10% FBS	453	469	458
RPMI 5 mM glucose + 10% dialyzed FBS	448	461	468

OC1=CC=C(C=C1)\C2=C\C(=O)C3=C(O2)C=C(O)C=C3O
cell viability [%]
Conditions	[1]	[2]	[3]
HPLM + 10% dialyzed FBS, 0.000781 µM	102	110	106
HPLM + 10% dialyzed FBS, 0.00234 µM	111	112	111
HPLM + 10% dialyzed FBS, 0.00702 µM	104	113	115
HPLM + 10% dialyzed FBS, 0.0211 µM	107	119	112
HPLM + 10% dialyzed FBS, 0.0632 µM	103	114	113
HPLM + 10% dialyzed FBS, 0.19 µM	126	120	108
HPLM + 10% dialyzed FBS, 0.569 µM	89.2	116	108
HPLM + 10% dialyzed FBS, 1.71 µM	107	108	94.4
HPLM + 10% dialyzed FBS, 5.12 µM	98.1	107	106
HPLM + 10% dialyzed FBS, 15.4 µM	84.1	108	113
HPLM + 10% dialyzed FBS, 46.1 µM	57.2	109	96.3
RPMI 5 mM glucose + 10% FBS, 0.000781 µM	108	111	–
RPMI 5 mM glucose + 10% FBS, 0.00234 µM	112	109	–
RPMI 5 mM glucose + 10% FBS, 0.00702 µM	108	112	–
RPMI 5 mM glucose + 10% FBS, 0.0211 µM	108	111	–
RPMI 5 mM glucose + 10% FBS, 0.0632 µM	105	105	–
RPMI 5 mM glucose + 10% FBS, 0.19 µM	105	106	–
RPMI 5 mM glucose + 10% FBS, 0.569 µM	97.9	104	–
RPMI 5 mM glucose + 10% FBS, 1.71 µM	96	105	–
RPMI 5 mM glucose + 10% FBS, 5.12 µM	107	104	–
RPMI 5 mM glucose + 10% FBS, 15.4 µM	88.9	109	–
RPMI 5 mM glucose + 10% FBS, 46.1 µM	53.6	96.6	–
RPMI 5 mM glucose + 10% dialyzed FBS, 0.000781 µM	108	117	92
RPMI 5 mM glucose + 10% dialyzed FBS, 0.00234 µM	101	120	121
RPMI 5 mM glucose + 10% dialyzed FBS, 0.00702 µM	114	119	119
RPMI 5 mM glucose + 10% dialyzed FBS, 0.0211 µM	104	122	109
RPMI 5 mM glucose + 10% dialyzed FBS, 0.0632 µM	104	118	111
RPMI 5 mM glucose + 10% dialyzed FBS, 0.19 µM	102	113	108
RPMI 5 mM glucose + 10% dialyzed FBS, 0.569 µM	116	115	108
RPMI 5 mM glucose + 10% dialyzed FBS, 1.71 µM	99.3	109	94.9
RPMI 5 mM glucose + 10% dialyzed FBS, 5.12 µM	97.8	110	93.6
RPMI 5 mM glucose + 10% dialyzed FBS, 15.4 µM	80	103	98
RPMI 5 mM glucose + 10% dialyzed FBS, 46.1 µM	54.6	96.4	64.2

AUC of viability dose-response curve
Conditions	[4]	[5]	[6]
HPLM + 10% dialyzed FBS	451	467	462
RPMI 5 mM glucose + 10% FBS	457	456	430
RPMI 5 mM glucose + 10% dialyzed FBS	448	453	443
